Assay [1] deals with acetylcholinesterase (Homo sapiens, UniProt P22303). The assay is described as follows: biochemical.
Assay [2] concerns the target butyrylcholinesterase (Homo sapiens, UniProt P06276). The assay is described as follows: biochemical.
Where [3] appears, read: read-out: Acetylcholinesterase IC-50.
[4] abbreviates: read-out: Butyrylcholinesterase IC-50.

Where two headings read alike, the source gives them in different places.

Chain of butyrylcholinesterase (P06276 29-602): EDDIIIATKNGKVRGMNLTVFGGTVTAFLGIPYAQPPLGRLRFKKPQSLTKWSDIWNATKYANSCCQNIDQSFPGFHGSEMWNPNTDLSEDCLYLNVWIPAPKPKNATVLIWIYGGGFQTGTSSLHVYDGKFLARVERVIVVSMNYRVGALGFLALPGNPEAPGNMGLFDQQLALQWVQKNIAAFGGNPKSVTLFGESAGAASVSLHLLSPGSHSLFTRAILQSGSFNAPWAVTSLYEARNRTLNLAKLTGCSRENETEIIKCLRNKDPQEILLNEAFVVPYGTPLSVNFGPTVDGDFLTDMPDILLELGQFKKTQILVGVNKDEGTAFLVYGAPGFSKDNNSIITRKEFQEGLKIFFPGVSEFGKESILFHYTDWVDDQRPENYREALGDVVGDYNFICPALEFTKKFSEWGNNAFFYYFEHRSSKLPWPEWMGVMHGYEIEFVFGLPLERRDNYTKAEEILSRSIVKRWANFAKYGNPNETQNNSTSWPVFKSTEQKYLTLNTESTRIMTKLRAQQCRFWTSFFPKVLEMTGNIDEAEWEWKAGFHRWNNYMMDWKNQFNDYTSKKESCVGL
Chain of acetylcholinesterase (P22303 32-614, species assumed): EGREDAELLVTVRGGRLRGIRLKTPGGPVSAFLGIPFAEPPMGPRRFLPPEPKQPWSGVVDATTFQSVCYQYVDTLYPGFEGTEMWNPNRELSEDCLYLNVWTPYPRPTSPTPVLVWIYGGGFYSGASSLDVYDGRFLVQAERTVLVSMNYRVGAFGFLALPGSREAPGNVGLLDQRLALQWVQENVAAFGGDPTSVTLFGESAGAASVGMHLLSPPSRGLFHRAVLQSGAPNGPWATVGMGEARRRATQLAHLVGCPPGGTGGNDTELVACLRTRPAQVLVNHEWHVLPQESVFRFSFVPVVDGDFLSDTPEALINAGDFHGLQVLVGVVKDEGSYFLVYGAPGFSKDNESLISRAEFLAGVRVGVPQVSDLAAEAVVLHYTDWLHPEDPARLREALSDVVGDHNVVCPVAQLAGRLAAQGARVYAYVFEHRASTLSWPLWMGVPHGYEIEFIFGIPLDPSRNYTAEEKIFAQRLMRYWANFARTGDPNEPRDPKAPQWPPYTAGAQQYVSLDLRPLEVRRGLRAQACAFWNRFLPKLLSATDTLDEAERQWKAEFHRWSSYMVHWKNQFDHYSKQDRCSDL

`COc1cc(Br)c2c3c1O[C@@H]1C[C@H](O)C=C[C@]31CCN(Cc1ccccc1)C2` [Example 6, (4aR,6S,8aR)-11-benzyl-1-bromo-4a,5,9,10,11,12-hexahydro-3-methoxy-6H-[1]benzofuro[3a,3,2-ef][2]benzazepin-6-ol]: the IC50 in assay [1] (setting [3]) is greater than 100 µM; in assay [2] (setting [4]), 19 µM.
For the molecule `CNC(=S)N1CC[C@]23C=C[C@@H](O)C[C@H]2Oc2c(OC)cc(Br)c(c23)C1` [Example 11, (4aR,6S,8aR)-1-bromo-4a,5,9,10-tetrahydro-6-hydroxy-3-methoxy-6H-[1]benzofuro-[3a,3,2-et][2]benzazepine-11(12H)-thiocarbonic acid methylamide], the IC50 in assay [1] (setting [3]) and in assay [2] (setting [4]) was greater than 100 µM each time.
Consider `COc1cc(Br)c2c3c1O[C@H]1C[C@H](O)C=C[C@@]31CCNC2` [Example 1, (4aS,6S,8S)-1-bromo-4a,5,9,10,11,12-hexahydro-3-methoxy-6H-[1]benzofuro[3a,3,2-ef][2]benzazepin-6-ol.], for which the IC50 in assay [1] and in assay [2] was greater than 100 µM in each case.
`COc1cc(Br)c2c3c1O[C@@H]1C[C@@H](O)C=C[C@]31CCNC2` [Example 3, (4aR,6R,8R)-1-bromo-4a,5,9,10,11,12-hexahydro-3-methoxy-6H-[1]benzofuro[3a,3,2-ef][2]benzazepin-6-ol.]: the IC50 in assay [1] and in assay [2] was greater than 100 µM in each case.
As for `COc1ccc2c3c1O[C@H]1C[C@@H](O)C=C[C@@]31CCN(c1ncccn1)C2` [Example 37, (4aS,6R,8aS)-3-methoxy-11-(2-pyrimidinyl)-5,6,9,10,11,12-hexahydro-4aH-[1]benzofuro [3a,3,2-ef][2]benzazepin-6-ol], the IC50 in assay [1] (setting [3]) and in assay [2] (setting [4]) was greater than 100 µM throughout.
For `CNC(=S)N1CC[C@]23C=C[C@H](O)C[C@H]2Oc2c(OC)cc(Br)c(c23)C1` [Example 4, (4aR,6R,8aR)-1-brorno-4a,5,9,10-tetrahydro-6-hydroxy-3-methoxy-6H-[1]benzofuro-[3a,3,2-ef][2]benzazepine-11(12H)-thiocarbonic acid methylamide], the IC50 in assay [1] (setting [3]) and in assay [2] (setting [4]) was greater than 100 µM in each case.
Regarding `C=CCNC(=S)N1CC[C@@]23C=C[C@@H](O)C[C@@H]2Oc2c(OC)ccc(c23)C1` [Example 20, (4aS,6S,8aS)-6-hydroxy-3-methoxy-4a,5,9,10-tetrahydro-6H-[1]benzofuro[3a,3,2-ef][2]benzazepine-11(12H)-thiocarbonic acid allylamide], the IC50 in assay [1] (setting [3]) and in assay [2] (setting [4]) was greater than 100 µM each time.
On to `COc1ccc2c3c1O[C@H]1C=C(C(C)C)C=C[C@@]31CCN(C)C2` [Example 61, (4aS,8aS)-D5,6-4a,5,9,10,11,12-hexahydro-6-(isopropyl)-11-methyl-3-methoxy-6H-[1]benzofuro [3a,3,2-ef][2]benzazepine], for which the results for the IC50 in assay [1] (setting [3]) and in assay [2] (setting [4]) were greater than 100 µM and 9 µM, respectively.
In the same order, the values of `COc1ccc2c3c1O[C@H]1C[C@@H](O)C=C[C@@]31CCN(C(N)=S)C2` (stereo in doubt) [Example 30, (4aS,6R,8aS)-6-hydroxy-3-methoxy-5,6,9,10-tetrahydro-4aH-[1]benzofuro[3a,3,2-ef][2]benzazepine-11(12H)-carbothioamide] are greater than 100 µM and greater than 100 µM.
Take `COc1ccc2c3c1O[C@H]1C=C(C)C=C[C@@]31CCN(C)C2` [Example 60, (4aS,8aS)-D5,6--4a,5,9,10,11,12-hexahydro-6,11-dimethyl-3-methoxy-6H-[1]benzofuro[3a,3,2-ef][2]benzazepine]: the IC50 in assay [1] (setting [3]) is 80 µM; in assay [2] (setting [4]) it was 200 µM.
In the same order, the values of `COc1cc(Br)c2c3c1O[C@@H]1C[C@H](O)C=C[C@]31CCN(CCCN)C2` [Example 10, (4aR,6S,8aR)-11-(4-aminopropyl)-3-methoxy-5,6,9,10,11,12-hexahydro-4aH-[1]benzofuro[3a,3,2-et][2]benzazepin-6-ol, methane sulfonate] are greater than 100 µM and greater than 100 µM.
As for `COc1ccc2c3c1O[C@H]1C[C@@H](O)C=C[C@@]31CCN(CCCCN1CCCCC1)C2` [Example 50], the IC50 in assay [1] was determined as 0.036 µM; in assay [2] it was 0.61 µM.
With `COc1cc(Br)c2c3c1O[C@H]1C[C@@H](O)C=C[C@@]31CCN(CCN1CCOCC1)C2` [Example 57, (4aS,6R,8aS)-1-bromo-4a,5,9,10,11,12-hexahydro-11-(2-(mopholin-4-yl)-ethyl)-3-methoxy-6H-[1]benzafuro[3a,3,2-ef][2]benzazepin-6-ol], the results for the IC50 in assay [1] and in assay [2] were greater than 100 µM and 2.7 µM, respectively.
For `COc1ccc2c3c1O[C@H]1C[C@H](O)C=C[C@@]31CCN(C(N)=O)C2` [Example 21, (4aS,6S,8aS)-4a,5,9,10-tetrahydro-6-hydroxy-3-methoxy-6H-[1]benzofuro[3a,3,2-ef][2]benzazepine-11(12H)-carboxamide], the IC50 in assay [1] (setting [3]) and in assay [2] (setting [4]) was greater than 100 µM throughout.
Consider `COc1ccc2c3c1O[C@H]1C[C@@H](O)C=C[C@@]31CCN(CC(N)=O)C2` [Example 34, 2-((4aS,6R,8aS)-6-hydroxy-3-methoxy-5,6,9,10-tetrahydro-4aH-[1]benzofuro[3a,3,2-ef][2]benzazepine-11(12H)-yl)acetamide], for which the IC50 is greater than 100 µM in assay [1] (setting [3]) and 78 µM in assay [2] (setting [4]).
As to `COc1ccc2c3c1O[C@H]1C[C@@H](O)C=C[C@@]31CCN(c1nc(Cl)nc(Cl)n1)C2` [Example 42, (4aS,6R,8aS)-11-(4,6-dichloro-1,3,5,-triazin-2-yl)-3-methoxy-5,6,9,10,11,12-hexahydro-4aH-[1]benzofuro[3a,3,2-ef][2]benzazepin-6-ol], the IC50 in assay [1] (setting [3]) and in assay [2] (setting [4]) was greater than 100 µM in each case.
Regarding `COc1ccc2c3c1O[C@H]1C[C@H](O)C=C[C@@]31CCN(C(=O)NC(C)C)C2` [Example 14], the IC50 in assay [1] (setting [3]) and in assay [2] (setting [4]) was greater than 100 µM throughout.
As to `COC(=O)CCC(=O)N1CC[C@]23C=C[C@@H](O)C[C@H]2Oc2c(OC)cc(Br)c(c23)C1` [Example 9, Methyl-4-((4aR,6S,8aR)-1-bromo-4a,5,9,10,11,12-hexahydro-6-hydroxy-3-methoxy-6H-benzofuro[3a,3,2-ef][2]benzazepine-11-yl)gamma-oxobutyrate], the IC50 in assay [1] (setting [3]) and in assay [2] (setting [4]) was greater than 100 µM in each case.
With `COc1ccc2c3c1O[C@@H]1C[C@@H](O)C=C[C@]31CCN(C(N)=O)C2` [Example 25, (4aR,6R,8aR)-4a,5,9,10-tetrahydro-6-hydroxy-3-methoxy-6H-[1]benzofuro[3a,3,2-ef][2]benzazepine-11(12H)-carboxamide], the IC50 in assay [1] (setting [3]) and in assay [2] (setting [4]) was greater than 100 µM in each case.
With `C#CCN1CC[C@@]23C=C[C@@H](O)C[C@@H]2Oc2c(OC)ccc(c23)C1` [Example 18, (4aS,6S,8aS)-4a,5,9,10,11,12-hexahydro-3-methoxy-11-propargyl-6H-[1]benzofuro[3a,3,2-ef][2]benzazepin-6-ol], the IC50 in assay [1] (setting [3]) and in assay [2] (setting [4]) was greater than 100 µM in each case.

(Values after patent US20070105837A1, “Novel derivatives of 4a,5,9,10,11,12-hexahydrobenzofuro[3a,3,2][2]-benzazepine, method for the production thereof and use thereof in the production of medicaments” (priority 2003, published 2007).)
